This passage reports IC50 results from patent US8969565B2, “Imidazo[1,2-b]pyridazine-based compounds, compositions comprising them, and methods of their use” (Lexicon Pharmaceuticals, Inc., priority 2012, dated 2015).

Molecules are shown by their SMILES. pIC50: −log10 of the molar value.

For assay [1], the target named is T1, AAK1 (Homo sapiens, UniProt Q2M2I8).
T1 construct: HA; expressed in transfected cells; host or cells: HEK293F
The experiment in a line: HEK281 cell-based assay (phospho-mu2 Western blot in transfected HEK293F cells). Particulars: 3 hours incubation, read-out: CBA IC50. In outline: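 After 3 hours at 37° C. with compound (five 3-fold-spaced concentrations, DMEM+0.5% FBS), transiently transfected HEK293F cells expressing full-length human AAK1 and Flag-tagged mu2 were lysed. mu2 phosphorylation was read by anti-phospho-mu2 immunoblot, normalized against total mu2 by anti-Flag blot.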
Background: Immunoblotting shows a protein as a band on a membrane.

In assay [2] the target is T1, AAK1. The experiment in a line: P81 filter plate assay. The assay is classed as biochemical. Particulars: full-length human AAK1, Mu2 substrate.

T1 sequence (Q2M2I8 1-863 isoform Q2M2I8-2): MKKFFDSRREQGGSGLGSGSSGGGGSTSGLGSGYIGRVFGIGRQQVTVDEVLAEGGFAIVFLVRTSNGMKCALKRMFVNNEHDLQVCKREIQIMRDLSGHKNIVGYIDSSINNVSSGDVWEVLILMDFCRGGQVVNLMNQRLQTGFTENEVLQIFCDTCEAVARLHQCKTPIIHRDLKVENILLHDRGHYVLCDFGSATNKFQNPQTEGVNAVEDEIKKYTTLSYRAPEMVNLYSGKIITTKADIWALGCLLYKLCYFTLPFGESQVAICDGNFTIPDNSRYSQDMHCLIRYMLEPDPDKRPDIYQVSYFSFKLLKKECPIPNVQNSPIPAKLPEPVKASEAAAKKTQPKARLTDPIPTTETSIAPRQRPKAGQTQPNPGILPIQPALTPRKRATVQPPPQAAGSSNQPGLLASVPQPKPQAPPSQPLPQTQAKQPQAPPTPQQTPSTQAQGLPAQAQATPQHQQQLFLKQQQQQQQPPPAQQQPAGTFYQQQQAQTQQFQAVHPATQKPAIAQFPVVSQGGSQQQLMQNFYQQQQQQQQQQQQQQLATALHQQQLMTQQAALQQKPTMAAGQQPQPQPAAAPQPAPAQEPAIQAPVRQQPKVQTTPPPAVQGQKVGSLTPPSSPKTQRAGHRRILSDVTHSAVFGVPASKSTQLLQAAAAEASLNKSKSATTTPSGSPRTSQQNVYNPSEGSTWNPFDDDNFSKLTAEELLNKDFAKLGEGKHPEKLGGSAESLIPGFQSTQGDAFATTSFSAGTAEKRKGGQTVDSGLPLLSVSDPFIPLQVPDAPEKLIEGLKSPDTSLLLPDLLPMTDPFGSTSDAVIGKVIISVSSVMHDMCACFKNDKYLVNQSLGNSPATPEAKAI

As to `COCCOC(=O)N1CCN(c2ccc3ncc(-c4cccnc4OC)n3n2)CC1` [2-methoxyethyl 4-(3-(2-methoxypyridin-3-yl)imidazo[1,2-b]pyridazin-6-yl)piperazine-1-carboxylate], the negative-log IC50 (pIC50) (in general, the negative decadic logarithm of the IC50, by convention in mol/L) at AAK1 [1] was at least 7.00; at AAK1 [2], at least 8.00. Regarding `CC(C)(C)CC(=O)N1CCN(c2ccc3ncc(-c4ccccc4)n3n2)CC1` [3,3-dimethyl-1-(4-(3-phenylimidazo[1,2-b]pyridazin-6-yl)piperazin-1-yl)butan-1-one], the figures for the pIC50 on AAK1 [1] and against AAK1 [2] were at least 7.00 and at least 8.00, respectively.

With `NCc1ccc(-c2cnc3ccc(NCC4CCCN4CC(F)(F)F)nn23)cc1` (centres unmarked) [3-(4-(aminomethyl)phenyl)-N-((1-(2,2,2-trifluoroethyl)pyrrolidin-2-yl)methyl)imidazo[1,2-b]pyridazin-6-amine], the pIC50 was at least 7.00 on AAK1 [1] and at least 8.00 on AAK1 [2]. Take `CN(C(=O)C1CCCC1)[C@H]1CCN(c2ccc3ncc(-c4cccnc4O)n3n2)C1` [Cyclopentanecarboxylic acid {(S)-1-[3-(2-hydroxy-pyridin-3-yl)-imidazo[1,2-b]pyridazin-6-yl]-pyrrolidin-3-yl}-methyl-amide]: the pIC50 at AAK1 [2] is at least 7.00. Molecule `COC(=O)c1cnn(-c2ccc3ncc(Br)n3n2)c1` [Methyl 1-(3-bromoimidazo[1,2-b]pyridazin-6-yl)-1H-pyrazole-4-carboxylate] had a pIC50 against AAK1 [2] of at least 7.00. For the molecule `COc1cccc(-c2cnc3ccc(NCCOC4CCCC4)nn23)c1` [N-(2-(cyclopentyloxy)ethyl)-3-(3-methoxyphenyl)imidazo[1,2-b]pyridazin-6-amine], on AAK1 [2], the pIC50 is at least 7.00. As to `Cc1csc(-c2cnc3ccc(NCCOC4CCCC4)nn23)c1` [N-(2-(cyclopentyloxy)ethyl)-3-(4-methylthiophen-2-yl)imidazo[1,2-b]pyridazin-6-amine], at AAK1 [2], the pIC50 was at least 7.00. For `Cc1ccc(-c2cnc3ccc(NCCOC4CCCC4)nn23)s1` [N-(2-(cyclopentyloxy)ethyl)-3-(5-methylthiophen-2-yl)imidazo[1,2-b]pyridazin-6-amine], the negative-log IC50 (pIC50) at AAK1 [2] was at least 7.00. The molecule `c1csc(-c2cnc3ccc(NCCOC4CCCC4)nn23)c1` [N-(2-(cyclopentyloxy)ethyl)-3-(thiophen-2-yl)imidazo[1,2-b]pyridazin-6-amine] had a negative-log IC50 (pIC50) against AAK1 [2] of at least 8.00.

With `c1cc(-c2cnc3ccc(NCCOC4CCCC4)nn23)cs1` [N-(2-(cyclopentyloxy)ethyl)-3-(thiophen-3-yl)imidazo[1,2-b]pyridazin-6-amine], on AAK1 [2], the negative-log IC50 (pIC50) was at least 7.00. For `CC(C)NC(=O)N1CCN(c2ccc3ncc(-c4ccccc4)n3n2)CC1` [N-Isopropyl-4-(3-phenylimidazo[1,2-b]pyridazin-6-yl)piperazine-1-carboxamide], the pIC50 at AAK1 [2] is at least 8.00. The molecule `COc1cnccc1-c1cnc2ccc(NC3CCCCC3)nn12` [N-cyclohexyl-3-(3-methoxypyridin-4-yl)imidazo[1,2-b]pyridazin-6-amine] showed a negative logarithm of the IC50 (pIC50) against AAK1 [2] of at least 8.00. Molecule `CC(C)OC(=O)N(C)[C@H]1CCN(c2ccc3ncc(Br)n3n2)C1` [[(S)-1-(3-Bromo-imidazo[1,2-b]pyridazin-6-yl)-pyrrolidin-3-yl]-methyl-carbamic acid isopropyl ester] showed a negative logarithm of the IC50 (pIC50) at AAK1 [2] of at least 8.00. Molecule `CCOC(=O)N1CCN(c2ccc3ncc(C(=O)NC)n3n2)CC1` [ethyl 4-(3-(methylcarbamoyl)imidazo[1,2-b]pyridazin-6-yl)piperazine-1-carboxylate] showed a pIC50 at AAK1 [2] of at least 7.00.

As for `CC(=O)c1cnc2ccc(N3CCN(C(=O)OC(C)C)CC3)nn12` [isopropyl 4-(3-acetylimidazo[1,2-b]pyridazin-6-yl)piperazine-1-carboxylate], the negative logarithm of the IC50 (pIC50) at AAK1 [2] was at least 7.00. Still for that read-out and setting: the figure for `COC(=O)c1cnn(-c2ccc3ncc(-c4cccnc4OC)n3n2)c1` [methyl 1-(3-(2-methoxypyridin-3-yl)imidazo[1,2-b]pyridazin-6-yl)-1H-pyrazole-4-carboxylate] is at least 8.00; for `COc1ncccc1-c1cnc2ccc(N3CC(N(C)C(=O)OC(C)(C)C)C3)nn12` [tert-butyl (1-(3-(2-methoxypyridin-3-yl)imidazo[1,2-b]pyridazin-6-yl)azetidin-3-yl)(methyl)carbamate] it is at least 6.00.
